Key:
[1] = system: human HPCs; details: human HPCs cultured in vitro; previously demonstrated; cited from earlier work
[2] = system: E4bp4; details: cited from earlier work
[3] = system: HPCs; test: NK cell production from HPCs treated with SR8278 and/or cultured on rDLL4 (flow cytometry); format: cell-based, mouse; details: SR8278 on day 2 of culture, no rDLL4; average of triplicate experiments
Method: HPCs were cultured in four sets of conditions in addition to control (non-treated) conditions: (i) treated with SR8278 on day 2 of culture (no recombinant DLL4, rDLL4); (ii) cultured on rDLL4 (no SR8278); (iii) cultured on rDLL4 and treated with SR8278 on day 0 of culture; or (iv) treated with SR8278 on day 0 of culture, cultured on rDLL4 from day 2. Aside from the different treatments, the culture conditions were otherwise identical to those previously described for NK cell production from HPCs.
This experiment was repeated with an expanded set of culture conditions, as set out in FIG. 13. The results of this duplicate experiment are illustrated in FIG. 14.
Lineage negative HPCs were purified from mouse bone marrow by crushing the leg bones in Phosphate-buffered Saline (PBS) with 2% fetal calf serum (FCS) (STEMCELL Technologies), topped up to 40 ml with magnetic-activated cell sorting (MACS) buffer (PBS, 2 mM EDTA, 0.5% BSA, sterile and filtered) and centrifuged at 800 g for 2 minutes. […]
(§1) Cells to be analysed by flow cytometry were passed through 40 μm cell strainers to remove clumps and washed with PBS buffer, centrifuged at 800 g for 2 minutes and resuspended in 100 μl fluorescent activated cell sorting (FACS) buffer (PBS plus 1% BSA) with appropriate fluorochrome conjugated antibodies at a dilution of 1 in 300. […]

[4] = system: HPC culture; details: previously demonstrated, cited from earlier work
[5] = system: E4bp4−/− Lin− BM cells; test: NK cell development from E4bp4−/− Lin− BM cells on rDLL1/rDLL4-coated plates; format: cell-based, mouse; details: plates coated with 10 μg/ml ligand, first 7 days of culture, then IL-15
Method: As E4bp4 appeared to regulate Notch1 expression, it was speculated that enhanced Notch signalling, at an early stage, could potentially affect the development of NK cells from E4bp4^−/− HPCs. To study NK cell development from HPCs in the presence or absence of Notch signalling, Lin^− BM cells were cultured on either OP9 stromal cells or OP9-DL1 cells (that express the Notch ligand delta-like 1) (FIG. 10C). Subsequently, cells were transferred onto fresh OP9 and cultured in the presence of IL-15 (FIG. 11A). When E4bp4^−/− cells were grown on control OP9, no NK cell development was observed, but when the E4bp4^−/− cells were grown on OP9-DL1 for the first part of the culture, remarkably, NK cell development was rescued (FIG. 11B). The same result was not observed when the cells were grown on OP9-DL1 for the second part of the culture (FIG. 11B). To eliminate the influence of stromal cells, tissue culture plates were coated with either recombinant delta-like ligand 1 (rDLL1) or rDLL4 protein. […]
as §1

Molecule	Human NK cell development [1]	E4bp4 expression [2]	% of NK cells produced [3] [%]	Optimum dose for in vitro NK cell production ([4]; added to the HPC culture, optimum time Day 2) [µM]	Increase of production of NK cells ([4]; upon administration of SR8278)	Rescue of NK cell production in the absence of E4bp4 [5]
CCOC(=O)C1Cc2ccccc2CN1C(=O)c1ccc(SC)s1 (stereo not drawn) [SR8278, 1,2,3,4-Tetrahydro-2-[[5-(methylthio)-2-thienyl]carbonyl]-3-isoquinolinecarboxylic acid ethyl ester]	significantly increase	increased	57.5	10	more than 2 fold	–
rDLL1: recombinant delta-like ligand 1 protein (R&D Systems), coated on culture plates (protein, UniProt O00548 18-723, looked up) Delta-like protein 1: QVWSSGVFELKLQEFVNKKGLLGNRNCCRGGAGPPPCACRTFFRVCLKHYQASVSPEPPCTYGSAVTPVLGVDSFSLPDGGGADSAFSNPIRFPFGFTWPGTFSLIIEALHTDSPDDLATENPERLISRLATQRHLTVGEEWSQDLHSSGRTDLKYSYRFVCDEHYYGEGCSVFCRPRDDAFGHFTCGERGEKVCNPGWKGPYCTEPICLPGCDEQHGFCDKPGECKCRVGWQGRYCDECIRYPGCLHGTCQQPWQCNCQEGWGGLFCNQDLNYCTHHKPCKNGATCTNTGQGSYTCSCRPGYTGATCELGIDECDPSPCKNGGSCTDLENSYSCTCPPGFYGKICELSAMTCADGPCFNGGRCSDSPDGGYSCRCPVGYSGFNCEKKIDYCSSSPCSNGAKCVDLGDAYLCRCQAGFSGRHCDDNVDDCASSPCANGGTCRDGVNDFSCTCPPGYTGRNCSAPVSRCEHAPCHNGATCHERGHRYVCECARGYGGPNCQFLLPELPPGPAVVDLTEKLEGQGGPFPWVAVCAGVILVLMLLLGCAAVVVCVRLRLQKHRPPADPCRGETETMNNLANCQREKDISVSIIGATQIKNTNKKADFHGDHSADKNGFKARYPAVDYNLVQDLKGDDTAVRDAHSKRDTKCQPQGSSGEEKGTPTTLRGGEASERKRPDSGCSTSKDTKYQSVYVISEEKDECVIATEV	–	–	–	–	–	Only a very partial rescue
